Results from PubChem BioAssay (NCI).
Where “and” joins values, the source holds several entries; their conditions need not be identical. Equal entries are not always repeated.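 Values below derive from 48-hour exposures of cells grown in 96-well plates, with endpoints linearly interpolated between the two concentrations bracketing the appropriate inhibition level. GI50 = concentration required for 50% inhibition of growth. TGI denotes the concentration required for complete inhibition of growth.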

What was measured:
Test in all cases: NCI anticancer screen, dose series, 48 h
[1] = test system: CCRF-CEM leukemia
[2] = test system: UACC-62 melanoma
[3] = test system: MCF7 breast
[4] = test system: SF-295 CNS
[5] = test system: SK-OV-3 ovarian
[6] = test system: NCI-H226 lung
[7] = test system: HL-60(TB) leukemia
[8] = test system: T-47D breast
[9] = test system: SK-MEL-28 melanoma
[10] = test system: RXF 393 renal

SMILES | TGI [1] | GI50 [2] | TGI [2] | TGI [3] | GI50 [4] | TGI [4] | GI50 [5] | TGI [5] | TGI [6] | TGI [7] | TGI [8] | GI50 [9] | TGI [9] | GI50 [1] | GI50 [3] | GI50 [6] | GI50 [10] | TGI [10] | GI50 [8] | GI50 [7]
CCc1ccc(NCc2cc(OC)c(OC)c(OC)c2)cc1 | > 77.9 µM | 0.22 µM and 0.105 µM | 83.1 µM and > 85.3 µM | 24.8 µM | 0.0741 µM | 6.29 µM and 1.99 µM | 0.315 µM and 0.152 µM | 9.02 µM and 16.9 µM | > 85 µM | 7.94 µM and 5.38 µM | 74.5 µM | 1.27 µM and 0.185 µM | > 75.2 µM and 69.6 µM |  |  |  |  |  |  | 
CN(C)CCCNC(=O)c1cc(NC(=O)CCNS(=O)(=O)c2ccc3c(c2)C(=O)c2ccccc2C3=O)cn1C | > 100 µM | > 100 µM | > 100 µM | > 100 µM | > 100 µM | > 100 µM | > 100 µM | > 100 µM | > 100 µM |  | > 100 µM |  |  | > 100 µM | > 100 µM | > 100 µM | > 100 µM | > 100 µM | > 100 µM | 
Fc1ccc2[nH]cc(Cc3c[nH]c4ccc(F)cc34)c2c1 | 64.5 µM | 12 µM | 28.3 µM | > 100 µM | 20.6 µM | 47.9 µM |  |  | 92.3 µM | > 100 µM | 96.9 µM | 25.3 µM | 76.7 µM | 16.7 µM | 35.6 µM | 31.3 µM | 18.2 µM | 42.8 µM | 20 µM | 37.4 µM
CCN=C1C=CC(=C(c2ccc(N(C)C)cc2)c2ccc(N(C)C)cc2)c2ccccc21 | 3.64 µM |  |  | 1.09 µM | 0.122 µM | 0.423 µM | 0.105 µM | 0.455 µM |  | 0.141 µM | 1.52 µM | 0.15 µM | 1.66 µM | 0.153 µM | 0.141 µM |  |  |  | 0.0567 µM | 0.0434 µM
O=C1C(Cl)=C(N/N=c2/[nH][nH]/c(=N/NC3=C(Cl)C(=O)c4ccccc4C3=O)c3ccccc23)C(=O)c2ccccc21 | 56.7 µM |  |  | 38.4 µM | 14.2 µM | 30.5 µM | 15.3 µM | 29.5 µM | 44 µM | 34.2 µM | 36.8 µM | 19.5 µM | 39 µM | 10 µM | 12.3 µM | 17.8 µM |  |  | 6.71 µM | 8.45 µM
CC12CCC(=O)C(O1)C1C(=O)c3cc4ccccc4cc3C(=O)C12 (stereo unspecified) | 31 µM |  |  | 33 µM |  |  | 46.6 µM | > 100 µM | 41.9 µM | 48 µM | 39.4 µM | 20.3 µM | 74.4 µM | 11.4 µM | 12.6 µM | 14.4 µM | 2.5 µM | 14.6 µM | 14.9 µM | 19.5 µM
C[C@]12CC[C@H]3[C@@H](CCC4=CC(=O)CC[C@@H]43)[C@@H]1CC[C@@H]2OC(=O)N(CCCl)N=O | > 35.4 µM | 0.413 µM | 18.1 µM | 29.8 µM | 0.121 µM | > 44.6 µM | 2.77 µM | 30 µM | 34.1 µM | 2.15 µM | 29.3 µM | 11.6 µM | 26.1 µM | 1.45 µM | 7.07 µM | 14 µM |  |  | 3.52 µM | 0.28 µM
